Test results as given in patent publication US7342137B1, “Cyclohexenone compounds from Antrodia camphorata and application thereof” (Golden Biotechnology Corporation, priority 2007, dated 2008).

Tests used:
[1] = tested on: human prostate cancer cells, LNCaP; experiment: In vitro Taxol add-on study (MTT), prostate cancer cells LNCaP; type: cell-based; details: LNCaP (0.0017 μg/ml Taxol) as printed in Table 6; 0 μg/ml formula 2
Method: (§1) The experiment was also carried out according to NCI anti-cancer drug screen in vitro model. The human prostate cancer cells, LNCaP and DU-145 were separately cultivated in media containing fetal calf serum for 24 hours. The proliferated cells were washed once with PBS, then treated with 1× trypsin-EDTA and centrifuged at 1200 rpm for 5 minutes. The supernatant was discarded and the cell pellet was resuspended in 10 ml of fresh culture medium by gently shaking. The LNCaP cells were treated with 0.0017 μg/ml of Taxol for 72 hours and DU-145 cells were treated with 0.0043 μg/ml of Taxol for 72 hours before placing in a 96-well plate. 4-hydroxy-2,3-dimethoxy-6-methyl-5(3,7,11-trimethyl-dodeca-2,6,10-trienyl)-cyclohex-2-enone obtained from example 1 were added respectively into each of the 96 wells at the following concentrations: 0 μg/ml (the control group); 30, 10, 3, 1, 0.3, 0.1 and 0.03 μg/ml (the experiment group). The cells were incubated at 37° C. in a 5% CO2 incubator for 48 hours. MTT was added in a concentration of 2.5 mg/ml into each well in dark and reacted for 4 hours, followed by the addition of 100 μl of lysis buffer to stop the reaction. The plates were read on an ELISA reader at wavelength of 570 nm to determine the survival rates.

[2] = tested on: human hepatic cancer cells, Hep G2; experiment: In vitro Taxol add-on study (MTT), Hep G2; type: cell-based; details: 0.0017 μg/ml Taxol 72 hours, 0 μg/ml formula 2
Method: as §1, with “human hepatic” for “human prostate”, “cells, Hep 3B” for “cells, LNCaP”, “and Hep G2 […]” for “and DU-145”, “The Hep 3B cells were treated with 0.0043 μg/ml of Lovastatin for 72 hours and Hep G2” for “The LNCaP”, “0.0017” for “0.0017 μg/ml of Taxol for 72 hours and DU-145 cells were treated with 0.0043”

[3] = tested on: human prostate cancer cells, DU-145; experiment: In vitro Taxol add-on study (MTT), prostate cancer cells DU-145; type: cell-based; details: DU-145 (0.0043 μg/ml Taxol) as printed in Table 6; 0 μg/ml formula 2
Method: as §1

[4] = tested on: human breast-cancer cells, MDA-MB-231; experiment: In vitro Taxol add-on study (MTT), MDA-MB-231; type: cell-based; details: 0.0017 μg/ml Taxol 72 hours, 0 μg/ml formula 2
Method: (§2) The experiment was also carried out according to NCI anti-cancer drug screen in vitro model. The human breast-cancer cells, MCF-7 and MDA-MB-231 were separately cultivated in media containing fetal calf serum for 24 hours. The proliferated cells were washed once with PBS, then treated with 1× trypsin-EDTA and centrifuged at 1200 rpm for 5 minutes. The supernatant was discarded and the cell pellet was resuspended in 10 ml of fresh culture medium by gently shaking. The cells were placed in a 96-well plate after 0.0017 μg/ml Taxol was added and treated for 72 hours. 4-hydroxy-2,3-dimethoxy-6-methyl-5(3,7,11-trimethyl-dodeca-2,6,10-trienyl)-cyclohex-2-enone obtained from example 1 were added respectively into each of the 96 wells at the following concentrations: 0 μg/ml (the control group); 30, 10, 3, 1, 0.3, 0.1 and 0.03 μg/ml (the experiment group). The cells were incubated at 37° C. in a 5% CO2 incubator for 48 hours. MTT was added in a concentration of 2.5 mg/ml into each well in dark and reacted for 4 hours, followed by the addition of 100 μl of lysis buffer to terminate the reaction. The plates were read on an ELISA reader at wavelength of 570 nm to determine the survival rates.

[5] = tested on: human breast-cancer cells, MCF-7; experiment: In vitro Taxol add-on study (MTT), MCF-7; type: cell-based; details: 0.0017 μg/ml Taxol 72 hours, 0 μg/ml formula 2
Method: as §2

[6] = tested on: Human low density lipoprotein (LDL); experiment: In vitro antioxidant activity study (Cu2+-induced LDL oxidation, diene formation); type: biochemical; details: for Tlag: LDL oxidised with 5 μM CuSO4; for Capacity values: capacity value 1 = 2 μM Trolox; for ΔTlag: difference between Tlag and Tlag0 (H2O)
Method: Human low density lipoprotein (LDL) oxidated with copper ion (Cu^2+) has been widely employed to assess antioxidant activities of samples to be assayed. Antioxidant activity of a sample is determined by the diene contents of LDL after oxidation and expressed in Trolox equivalents by using a standard curve calculated from the water-soluble vitamin E analogue Trolox standards (the antioxidant capacity value of 1 is expressed in terms of 2 μM of Trolox).
The following solutions were prepared firstly: double distilled water (the negative control group), 5 mM sodium phosphate buffer (SPB), 1 μM and 2 μM Trolox solution (the positive control group), and 40 μg/ml 4-hydroxy-2,3-dimethoxy-6-methyl-5(3,7,11-trimethyl-dodeca-2,6,10-trienyl)-cyclohex-2-enone isolated from example 1. The concentration of LDL cholesterol (LDL-C) was determined using enzyme reaction method, which was diluted to 0.1-0.25 mg/ml with 5 mM SPB. One hundred μl of the LDL was added into each well of a 96-well quartz plate, followed by addition of the abovementioned Trolox and the isolated compound from example 1. Standardized oxidizing agent CuSO4 was supplemented to induce oxidation at a final concentration of 5 μM in each 250 μl well. The plate was read on an ELISA reader at wavelength of 232 nm at 37 °C for 12 hours. The sampling time was 15 min.

[7] = tested on: human hepatic cancer cells, Hep 3B; experiment: In vitro Lovastatin add-on study (MTT), Hep 3B; type: cell-based; details: 0.0043 μg/ml Lovastatin 72 hours, 0 μg/ml formula 2
Method: as §1, with “human hepatic” for “human prostate”, “cells, Hep 3B” for “cells, LNCaP”, “and Hep G2 […]” for “and DU-145”, “The Hep 3B cells were treated with 0.0043 μg/ml of Lovastatin for 72 hours and Hep G2” for “The LNCaP”, “0.0017” for “0.0017 μg/ml of Taxol for 72 hours and DU-145 cells were treated with 0.0043”

Compound: CC(=O)O[C@H]1C(=O)[C@@]2(C)[C@H]([C@H](OC(=O)c3ccccc3)[C@]3(O)C[C@H](OC(=O)[C@H](O)[C@@H](NC(=O)c4ccccc4)c4ccccc4)C(C)=C1C3(C)C)[C@]1(OC(C)=O)CO[C@@H]1C[C@@H]2O [Taxol, reference compound]
- Cell survival rate (%) [1]: 56 ± 3%
- Cell survival rate (%) [2]: 81 ± 2%
- Cell survival rate (%) [3]: 70 ± 2%
- Cell survival rate (%) [4]: 76 ± 3%
- Cell survival rate (%) [5]: 65 ± 1%

Compound: Cc1c(C)c2c(c(C)c1O)CCC(C)(C(=O)O)O2 (stereo not drawn) [Trolox]
- Tlag ([6]; 1 μM Trolox): 266 min
- Capacity values ([6]; 1 μM Trolox): 0.48
- ΔTlag ([6]; 1 μM Trolox): 81 min
- Tlag ([6]; 2 μM Trolox): 344 min
- Capacity values ([6]; 2 μM Trolox): 1.00
- ΔTlag ([6]; 2 μM Trolox): 159 min

Compound: CC[C@H](C)C(=O)O[C@H]1C[C@@H](C)C=C2C=C[C@H](C)[C@H](CC[C@@H]3C[C@@H](O)CC(=O)O3)[C@H]21 [Lovastatin, reference compound]
- Cell survival rate (%) [7]: 61 ± 3%
